The subject of data set [1] is Human immunodeficiency virus 1. The data set can be described thus: Antiviral activity against HIV1 in HEK293T cells. It counts as functional, organism-based. The note with it: Human immunodeficiency virus 1, HEK-293T.
Data set [2] deals with Rattus norvegicus. The data set can be described thus: AUC in […] rat at 50 mg/kg, po normalized to 1 mg/kg. It counts as ADME, organism-based, Plasma. As to conditions: in vivo.
The test system of data set [3] is Rattus norvegicus. As to the kind of experiment: Cmax in […] rat at 50 mg/kg, po normalized to 1 mg/kg. The note with it: in vivo. The arrangement: dose 50 mg/kg, route oral. It counts as ADME, organism-based.
The nature of data set [4]: Oral bioavailability in […] rat at 50 mg/kg, po. It counts as ADME, organism-based. As to conditions: in vivo.
In data set [5] the test system is Human immunodeficiency virus 1. As to the kind of experiment: Antiviral activity against HIV1 L100I mutant. It counts as functional, organism-based.
The test system of data set [6] is Human immunodeficiency virus 1. The data set can be described thus: Antiviral activity against HIV1 K103N mutant. It counts as functional, organism-based.
Data set [7] has as its system Human immunodeficiency virus 1. The data set can be described thus: Antiviral activity against HIV1 V106A mutant. It counts as functional, organism-based.
Data set [8] relates to Human immunodeficiency virus 1. The data set can be described thus: Antiviral activity against HIV1 I135T mutant. It counts as functional, organism-based.
Data set [9] deals with Human immunodeficiency virus 1. The data set can be described thus: Antiviral activity against HIV1 I135V mutant. It counts as functional, organism-based.
The test system of data set [10] is Human immunodeficiency virus 1. The data set can be described thus: Antiviral activity against HIV1 E138K mutant. It counts as functional, organism-based.
Data set [11] concerns Human immunodeficiency virus 1. As to the kind of experiment: Antiviral activity against HIV1 V179E mutant. It counts as functional, organism-based.
Data set [12] deals with Human immunodeficiency virus 1. As to the kind of experiment: Antiviral activity against HIV1 Y181C mutant. It counts as functional, organism-based.
Data set [13] has as its system Human immunodeficiency virus 1. As to the kind of experiment: Antiviral activity against HIV1 Y188L mutant. It counts as functional, organism-based.
For data set [14], the system named is Human immunodeficiency virus 1. As to the kind of experiment: Antiviral activity against HIV1 F227C mutant. It counts as functional, organism-based.
Data set [15] concerns HEK293. As to the kind of experiment: Cytotoxicity against HEK293T cells. It counts as functional. The note with it: Homo sapiens.
For data set [16], the system named is Human immunodeficiency virus 1. The data set can be described thus: Antiviral activity against HIV1 F227L mutant. It counts as functional, organism-based.

As to `O=C1Nc2ccc(Cl)cc2[C@@]12C[C@@H]2c1ccccn1`, the EC50 (in general, the concentration at which the effect is half-maximal) in [1] was 8 nM; in data set [5], 174 nM; in [6] it was over 10000 nM; in [7], 259 nM; in [8] it was 127 nM; in [9], 26 nM. For the same compound, the EC50 in data set [10] was 45 nM; in data set [11], 898 nM; in data set [12], 3230 nM; in [13], over 10000 nM; in [14] it was 528 nM; in [16], 13 nM. In data set [2], the AUC (commonly the area under the concentration-time curve, a measure of exposure) came to 5.43 µg·min/mL. For the same compound, the Cmax (commonly the peak of the concentration-time curve) in [3] was found to be 68.4 nM. For the same compound, the bioavailability (commonly dose-corrected exposure relative to a reference, in per cent) in [4] amounted to 46%. The CC50 (as a rule, the concentration at which the toxic effect on the cells reaches its halfway point) in data set [15] is over 10000 nM.
Turning to `O=C1Nc2ccc(Cl)cc2[C@@]12C[C@@H]2c1ccsc1`, the EC50 worked out at 6 nM in [1]; 8 nM in [5]; 100 nM in [6]; 513 nM in [7]; 48 nM in data set [8]; 17 nM in data set [9]. In addition, the EC50 in [10] stood at 30 nM; in data set [11], 324 nM; in data set [12], 31 nM; in data set [13], 1250 nM; in data set [14], 142 nM; in [16] it was 2 nM. This compound came in with a CC50 in data set [15] of 1670 nM.
Turning to `CCOC(=O)[C@H]1C(C)(C)[C@]12C(=O)Nc1ccc(Br)cc12`, in [2], the AUC was found to be 0.9 µg·min/mL. The same compound came in with a Cmax in data set [3] of 17.9 nM. In data set [4], this compound showed a bioavailability of 27%. The compound further gave a CC50 in data set [15] of over 10000 nM.
Take `Cc1cc([C@H]2C[C@]23C(=O)Nc2ccc(Cl)cc23)oc1C`: the EC50 was 27 nM in data set [1]; 260 nM in [5]; over 10000 nM in [6]; 630 nM in data set [7]; 236 nM in data set [8]; 59 nM in data set [9]. The EC50 in data set [10] was 52 nM; in data set [11], 2460 nM; in data set [12], 3070 nM; in data set [13], over 10000 nM; in [14], 957 nM; in [16], 63 nM. Further, the CC50 in data set [15] is over 10000 nM.

Source of the values: ChEMBL document CHEMBL1146939, “Design, synthesis, and biological evaluations of novel oxindoles as HIV-1 non-nucleoside reverse transcriptase inhibitors. Part 2” (Bioorg Med Chem Lett, 2006).
